Results as given in patent US4156000A, “Cyclopenta[b]thiophene derivatives” (Hexachimie, priority 1976, dated 1979).
Where a name gives a salt, the structure may show the parent alone.

Key:
[1] = tested on: pain reactions (abdominal contortions); assay: Analgesic activity: phenylbenzoquinone-induced pain reactions, oral administration; type: in vivo, mice (male, SPF1, strain OF1); details: Mus musculus; for inhibition in vivo at 8 mg/kg: 8 mg/kg oral administration; for inhibition in vivo at 16 mg/kg: 16 mg/kg oral administration; for inhibition in vivo at 32 mg/kg: 32 mg/kg oral administration; for inhibition in vivo at 64 mg/kg: 64 mg/kg oral administration; for inhibition in vivo at 256 mg/kg: 256 mg/kg oral administration; for inhibition in vivo at 4 mg/kg: 4 mg/kg oral administration
Experimental: Batches of 6 male mice (SPF1, strain OF1), weighing 19-20 g each are given the product to be tested, by oral administration. One hour afterwards, each mouse is injected intraperitoneally with 0.3 cm^3 of an 0.02% strength phenylbenzoquinone solution and from the 5th to the 10th minute after this latter treatment, the number of pain reactions (abdominal contortions) is counted. The table which follows gives the percentage inhibition of these reactions.

[2] = tested on: rear paw which has received the carrageenin; assay: Anti-inflammatory activity: carrageenin-induced rear paw swelling, oral administration; type: in vivo, rats (male SPF, strain OFA); details: for inhibition in vivo at 4 mg/kg / inhibition in vivo at 16 mg/kg / inhibition in vivo at 64 mg/kg / inhibition in vivo at 128 mg/kg / inhibition in vivo at 256 mg/kg: Rattus norvegicus, read-out: % of inhibition (reduction of swelling); for inhibition in vivo at 4 mg/kg: 4 mg/kg oral administration; for inhibition in vivo at 16 mg/kg: 16 mg/kg oral administration; for inhibition in vivo at 128 mg/kg: 128 mg/kg oral administration; for inhibition in vivo at 256 mg/kg: 256 mg/kg oral administration
Experimental: Batches of 12 male SPF rats, strain OFA, weighing 120-130 g each, are given the product to be tested by oral administration 2 hours before and 30 minutes before (1/2 dose each time) subcutaneous plantar injection of 0.05 cm^3 of a 1% solution of carrageenin. The volume of the rear paw which has received the carrageenin is measured at regular intervals.

## CCC1Cc2cc(C(C)C(=O)OCCN3CCOCC3)sc2C1 (stereo not drawn) [Example 30, Hydrochloride of the morpholinoethyl ester of α-methyl(5-ethyl-4,5-dihydro-6H-cyclopenta[b]thienyl-2)-acetic acid]
[1]
  inhibition in vivo at 8 mg/kg: 9%
  inhibition in vivo at 16 mg/kg: 6%
  inhibition in vivo at 32 mg/kg: 85%
  inhibition in vivo at 64 mg/kg: 93%
[2]
  inhibition in vivo at 4 mg/kg: 18%
  inhibition in vivo at 16 mg/kg: 38%
  inhibition in vivo at 128 mg/kg: 67%
  inhibition in vivo at 256 mg/kg: 79%
[2]; 64 mg/kg oral administration
  inhibition in vivo at 64 mg/kg: 53%

## CC(C(=O)OCCN1CCOCC1)c1cc2c(s1)CC(C(C)C)C2 (stereo not drawn) [Example 36, Hydrochloride of the morpholinoethyl ester of α-methyl-(5-isopropyl-4,5-dihydro-6H-cyclopenta[b]thienyl-2)-acetic acid]
[1]
  inhibition in vivo at 8 mg/kg: 23%
  inhibition in vivo at 16 mg/kg: 80%
  inhibition in vivo at 32 mg/kg: 84%
[2]
  inhibition in vivo at 4 mg/kg: 29%
  inhibition in vivo at 16 mg/kg: 30%
  inhibition in vivo at 128 mg/kg: 56%
  inhibition in vivo at 256 mg/kg: 66%
[2]; 64 mg/kg oral administration
  inhibition in vivo at 64 mg/kg: 62%

## CC(C)C1Cc2cc(CC(=O)OCCN(C)C)sc2C1 (stereo not shown) [Example 40, Hydrochloride of the dimethylaminoethyl ester of (5-isopropyl-4,5-dihydro-6H-cyclopenta[b]thienyl-2)-acetic acid]
[1]
  inhibition in vivo at 16 mg/kg: 0%
  inhibition in vivo at 64 mg/kg: 31%
  inhibition in vivo at 256 mg/kg: 88%
[2]
  inhibition in vivo at 4 mg/kg: 8%
  inhibition in vivo at 16 mg/kg: 7%
  inhibition in vivo at 128 mg/kg: 22%
  inhibition in vivo at 256 mg/kg: 32%
[2]; 64 mg/kg oral administration
  inhibition in vivo at 64 mg/kg: 13%

## CCC1Cc2cc(CC(=O)O)sc2C1 (stereo not shown) [Example 17, (5-Ethyl-4,5-dihydro-6H-cyclopenta[b]thienyl-2)-acetic acid]
[1]
  inhibition in vivo at 16 mg/kg: 17%
  inhibition in vivo at 32 mg/kg: 58%
  inhibition in vivo at 64 mg/kg: 63%
[2]
  inhibition in vivo at 4 mg/kg: 17%
  inhibition in vivo at 16 mg/kg: 24%
  inhibition in vivo at 128 mg/kg: 52%
  inhibition in vivo at 256 mg/kg: 66%
[2]; 64 mg/kg oral administration
  inhibition in vivo at 64 mg/kg: 55%

## CC(C(=O)OCCN(C)C)c1cc2c(s1)CC(C(C)C)C2 (stereo not shown) [Example 37]
[1]
  inhibition in vivo at 4 mg/kg: 10%
  inhibition in vivo at 8 mg/kg: 53%
  inhibition in vivo at 16 mg/kg: 42%
  inhibition in vivo at 32 mg/kg: 80%
[2]; 64 mg/kg oral administration
  % of inhibition (reduction of swelling): 45Z
[2]
  inhibition in vivo at 4 mg/kg: 5%
  inhibition in vivo at 16 mg/kg: 35%
  inhibition in vivo at 128 mg/kg: 63%
  inhibition in vivo at 256 mg/kg: 58%

## CCC1Cc2cc(CC(=O)OCCN(C)C)sc2C1 (stereo not shown) [Example 33, Hydrochloride of the dimethylaminoethyl ester of (5-ethyl-4,5-dihydro-6H-cyclopenta[b]thienyl-2)-acetic acid]
[1]
  inhibition in vivo at 16 mg/kg: 37%
  inhibition in vivo at 64 mg/kg: 17%
  inhibition in vivo at 256 mg/kg: 95%
[2]
  inhibition in vivo at 4 mg/kg: 2%
  inhibition in vivo at 16 mg/kg: 17%
  inhibition in vivo at 128 mg/kg: 54%
  inhibition in vivo at 256 mg/kg: 52%
[2]; 64 mg/kg oral administration
  inhibition in vivo at 64 mg/kg: 55%

## CCC1Cc2cc(CC(=O)OCCN3CCOCC3)sc2C1 (stereo not shown) [Example 32, Hydrochloride of the morpholinoethyl ester of (5-ethyl-4.5-dihydro-6H-cyclopenta[b]thienyl-2)-acetic acid]
[1]
  inhibition in vivo at 16 mg/kg: 25%
  inhibition in vivo at 32 mg/kg: 48%
  inhibition in vivo at 64 mg/kg: 53%
[2]
  inhibition in vivo at 4 mg/kg: 0%
  inhibition in vivo at 16 mg/kg: 16%
  inhibition in vivo at 128 mg/kg: 51%
  inhibition in vivo at 256 mg/kg: 53%
[2]; 64 mg/kg oral administration
  inhibition in vivo at 64 mg/kg: 20%

## CC(C(=O)O)c1cc2c(s1)CC(C(C)C)C2 (stereo not shown) [24 & 28]
[1]
  inhibition in vivo at 4 mg/kg: 0%
  inhibition in vivo at 8 mg/kg: 35%
  inhibition in vivo at 16 mg/kg: 66%
  inhibition in vivo at 32 mg/kg: 89%
  inhibition in vivo at 64 mg/kg: 96%
[2]
  inhibition in vivo at 4 mg/kg: 0%
  inhibition in vivo at 16 mg/kg: 32%
  inhibition in vivo at 128 mg/kg: 59%
  inhibition in vivo at 256 mg/kg: 46%
[2]; 64 mg/kg oral administration
  inhibition in vivo at 64 mg/kg: 63%

## CCC1Cc2cc(C(C)C(=O)O)sc2C1 (stereo not shown) [23 & 27]
[1]
  inhibition in vivo at 8 mg/kg: 7%
  inhibition in vivo at 16 mg/kg: 35%
  inhibition in vivo at 32 mg/kg: 79%
  inhibition in vivo at 64 mg/kg: 98%
[2]
  inhibition in vivo at 16 mg/kg: 30%
  inhibition in vivo at 128 mg/kg: 66%
  inhibition in vivo at 256 mg/kg: 56%
[2]; 64 mg/kg oral administration
  inhibition in vivo at 64 mg/kg: 67%

## CC(C)C1Cc2cc(CC(=O)OCCN3CCOCC3)sc2C1 (stereo not shown) [Example 39, Hydrochloride of the morpholinoethyl ester of (5-isopropyl-4,5-dihydro-6H-cyclopenta[b]thienyl-2)-acetic acid]
[1]
  inhibition in vivo at 64 mg/kg: 12%
  inhibition in vivo at 256 mg/kg: 53%
[2]
  inhibition in vivo at 4 mg/kg: 7%
  inhibition in vivo at 16 mg/kg: 23%
  inhibition in vivo at 128 mg/kg: 53%
  inhibition in vivo at 256 mg/kg: 56%
[2]; 64 mg/kg oral administration
  inhibition in vivo at 64 mg/kg: 20%

## CCC1Cc2cc(C(C)C(=O)OCCN(C)C)sc2C1 (stereo not drawn) [Example 34, Hydrochloride of the dimethylaminoethyl ester of α-methyl-(5-ethyl-4,5-dihydro-6H-cyclopenta[b]thienyl-2)-acetic acid]
[1]
  inhibition in vivo at 4 mg/kg: 21%
  inhibition in vivo at 8 mg/kg: 46%
  inhibition in vivo at 16 mg/kg: 74%
  inhibition in vivo at 32 mg/kg: 95%
[2]
  inhibition in vivo at 4 mg/kg: 3%
  inhibition in vivo at 16 mg/kg: 12%
  inhibition in vivo at 128 mg/kg: 64%
  inhibition in vivo at 256 mg/kg: 82%
[2]; 64 mg/kg oral administration
  inhibition in vivo at 64 mg/kg: 45%

## CC(C)C1Cc2cc(CC(=O)O)sc2C1 (stereo not shown) [Example 18, (5-Isopropyl-4,5-dihydro-6H-cyclopenta[b]thienyl-2)-acetic acid]
[1]
  inhibition in vivo at 16 mg/kg: 4%
  inhibition in vivo at 32 mg/kg: 27%
  inhibition in vivo at 64 mg/kg: 61%
[2]
  inhibition in vivo at 4 mg/kg: 0%
  inhibition in vivo at 16 mg/kg: 0%
  inhibition in vivo at 128 mg/kg: 47%
  inhibition in vivo at 256 mg/kg: 57%
[2]; 64 mg/kg oral administration
  inhibition in vivo at 64 mg/kg: 31%
